# Results reported in US9150632B2 (Indiana University Research and Technology Corporation, priority 2009, dated 2015).
# Non-standard residues stand in square brackets, D forms with d. Residues, ends and D or L forms follow the SMILES beside them. Dab = NCC[C@H](N)C(=O)O; Aib = CC(C)(N)C(=O)O
# Target: T1, glucagon receptor (Homo sapiens, UniProt P47871)
# T1 construct: expressed in transfected cells; host or cells: HEK293
# Test: Functional assay-cAMP synthesis, luciferase reporter in HEK293 cells, glucagon receptor
# Assay type: cell-based
# Parameters: % activity: concentration or dose not given beside the values
# Conditions: Table 26, glucagon receptor
# T1 sequence (P47871 26-477): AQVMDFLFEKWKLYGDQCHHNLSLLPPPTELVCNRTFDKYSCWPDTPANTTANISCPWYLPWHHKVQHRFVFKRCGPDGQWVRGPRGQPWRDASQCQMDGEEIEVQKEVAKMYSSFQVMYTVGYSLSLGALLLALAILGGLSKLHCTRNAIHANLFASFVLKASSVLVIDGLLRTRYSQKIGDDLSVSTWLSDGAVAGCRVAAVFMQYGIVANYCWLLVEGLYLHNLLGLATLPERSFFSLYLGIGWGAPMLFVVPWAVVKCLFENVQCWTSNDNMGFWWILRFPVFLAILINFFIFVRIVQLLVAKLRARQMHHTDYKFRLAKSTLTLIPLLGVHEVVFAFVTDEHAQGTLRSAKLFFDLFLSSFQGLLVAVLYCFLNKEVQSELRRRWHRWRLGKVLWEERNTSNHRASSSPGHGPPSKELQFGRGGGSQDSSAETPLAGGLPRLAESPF
row,Structure (SMILES),% activity [%]
1,CCCC[C@H](NC(=O)[C@H](CC(C)C)NC(=O)[C@H](Cc1c[nH]c2ccccc12)NC(=O)[C@H](C)NC(=O)[C@@H](NC(=O)[C@H](Cc1ccccc1)NC(=O)[C@H](CCC(=O)O)NC(=O)[C@H](C)NC(=O)[C@H](C)NC(=O)[C@H](CCCNC(=N)N)NC(=O)[C@H](CCCNC(=N)N)NC(=O)[C@@H](NC(=O)[C@H](CC(=O)O)NC(=O)[C@H](CC(C)C)NC(=O)[C@H](Cc1ccc(O)cc1)NC(=O)[C@H](CCCCN)NC(=O)[C@H](CO)NC(=O)[C@H](Cc1ccc(O)cc1)NC(=O)[C@H](CC(=O)O)NC(=O)[C@H](CO)NC(=O)[C@@H](NC(=O)[C@H](Cc1ccccc1)NC(=O)[C@@H](NC(=O)CNC(=O)[C@H](CCC(N)=O)NC(=O)[C@H](CO)NC(=O)[C@@H](N)Cc1c[nH]cn1)[C@@H](C)O)[C@@H](C)O)[C@@H](C)O)C(C)C)C(=O)N[C@@H](CC(=O)O)C(=O)N[C@@H](CCC(=O)O)C(=O)O [SEQ ID NO: 593],25
2,CCCC[C@H](NC(=O)[C@H](CC(C)C)NC(=O)[C@H](Cc1c[nH]c2ccccc12)NC(=O)[C@H](C)NC(=O)[C@@H](NC(=O)[C@H](Cc1ccccc1)NC(=O)[C@H](CCC(=O)O)NC(=O)[C@H](C)NC(=O)[C@H](C)NC(=O)[C@H](CCCNC(=N)N)NC(=O)[C@H](CCCNC(=N)N)NC(=O)[C@@H](NC(=O)[C@H](CC(=O)O)NC(=O)[C@H](CC(C)C)NC(=O)[C@H](Cc1ccc(O)cc1)NC(=O)[C@H](CCCCN)NC(=O)[C@H](CO)NC(=O)[C@H](Cc1ccc(O)cc1)NC(=O)[C@H](CC(=O)O)NC(=O)[C@H](CO)NC(=O)[C@@H](NC(=O)[C@H](Cc1ccccc1)NC(=O)[C@@H](NC(=O)CNC(=O)[C@H](CSCNC(C)=O)NC(=O)[C@H](CO)NC(=O)[C@@H](N)Cc1c[nH]cn1)[C@@H](C)O)[C@@H](C)O)[C@@H](C)O)C(C)C)C(=O)N[C@@H](CC(=O)O)C(=O)N[C@@H](CCC(=O)O)C(=O)O [SEQ ID NO: 594],33
3,CCCC[C@H](NC(=O)[C@H](CC(C)C)NC(=O)[C@H](Cc1c[nH]c2ccccc12)NC(=O)[C@H](C)NC(=O)[C@@H](NC(=O)[C@H](Cc1ccccc1)NC(=O)[C@H](CCC(=O)O)NC(=O)[C@H](C)NC(=O)[C@H](C)NC(=O)[C@H](CCCNC(=N)N)NC(=O)[C@H](CCCNC(=N)N)NC(=O)[C@@H](NC(=O)[C@H](CC(=O)O)NC(=O)[C@H](CC(C)C)NC(=O)[C@H](Cc1ccc(O)cc1)NC(=O)[C@H](CCCCN)NC(=O)[C@H](CO)NC(=O)[C@H](Cc1ccc(O)cc1)NC(=O)[C@H](CC(=O)O)NC(=O)[C@H](CO)NC(=O)[C@@H](NC(=O)[C@H](Cc1ccccc1)NC(=O)[C@@H](NC(=O)CNC(=O)[C@H](CCNC(C)=O)NC(=O)[C@H](CO)NC(=O)[C@@H](N)Cc1c[nH]cn1)[C@@H](C)O)[C@@H](C)O)[C@@H](C)O)C(C)C)C(=O)N[C@@H](CC(=O)O)C(=O)N[C@@H](CCC(=O)O)C(=O)O [SEQ ID NO: 595],19
4,CCCC[C@H](NC(=O)[C@H](CC(C)C)NC(=O)[C@H](Cc1c[nH]c2ccccc12)NC(=O)[C@H](C)NC(=O)[C@@H](NC(=O)[C@H](Cc1ccccc1)NC(=O)[C@H](CCC(=O)O)NC(=O)[C@H](C)NC(=O)[C@H](C)NC(=O)[C@H](CCCNC(=N)N)NC(=O)[C@H](CCCNC(=N)N)NC(=O)[C@@H](NC(=O)[C@H](CC(=O)O)NC(=O)[C@H](CC(C)C)NC(=O)[C@H](Cc1ccc(O)cc1)NC(=O)[C@H](CCCCN)NC(=O)[C@H](CO)NC(=O)[C@H](Cc1ccc(O)cc1)NC(=O)[C@H](CC(=O)O)NC(=O)[C@H](CO)NC(=O)[C@@H](NC(=O)[C@H](Cc1ccccc1)NC(=O)[C@@H](NC(=O)CNC(=O)[C@H](CNC(N)=O)NC(=O)[C@H](CO)NC(=O)[C@@H](N)Cc1c[nH]cn1)[C@@H](C)O)[C@@H](C)O)[C@@H](C)O)C(C)C)C(=O)N[C@@H](CC(=O)O)C(=O)N[C@@H](CCC(=O)O)C(=O)O [SEQ ID NO: 596],13
5,CCCC[C@H](NC(=O)[C@H](CC(C)C)NC(=O)[C@H](Cc1c[nH]c2ccccc12)NC(=O)[C@H](C)NC(=O)[C@@H](NC(=O)[C@H](Cc1ccccc1)NC(=O)[C@H](CCC(=O)O)NC(=O)[C@H](C)NC(=O)[C@H](C)NC(=O)[C@H](CCCNC(=N)N)NC(=O)[C@H](CCCNC(=N)N)NC(=O)[C@@H](NC(=O)[C@H](CC(=O)O)NC(=O)[C@H](CC(C)C)NC(=O)[C@H](Cc1ccc(O)cc1)NC(=O)[C@H](CCCCN)NC(=O)[C@H](CO)NC(=O)[C@H](Cc1ccc(O)cc1)NC(=O)[C@H](CC(=O)O)NC(=O)[C@H](CO)NC(=O)[C@@H](NC(=O)[C@H](Cc1ccccc1)NC(=O)[C@@H](NC(=O)CNC(=O)[C@H](CC[S+](C)[O-])NC(=O)[C@H](CO)NC(=O)[C@@H](N)Cc1c[nH]cn1)[C@@H](C)O)[C@@H](C)O)[C@@H](C)O)C(C)C)C(=O)N[C@@H](CC(=O)O)C(=O)N[C@@H](CCC(=O)O)C(=O)O (stereo partly shown) [SEQ ID NO: 598],7
6,CCCC[C@H](NC(=O)[C@H](CC(C)C)NC(=O)[C@H](Cc1c[nH]c2ccccc12)NC(=O)[C@H](C)NC(=O)[C@@H](NC(=O)[C@H](Cc1ccccc1)NC(=O)[C@H](CCC(=O)O)NC(=O)[C@H](C)NC(=O)[C@H](C)NC(=O)[C@H](CCCNC(=N)N)NC(=O)[C@H](CCCNC(=N)N)NC(=O)[C@@H](NC(=O)[C@H](CC(=O)O)NC(=O)[C@H](CC(C)C)NC(=O)[C@H](Cc1ccc(O)cc1)NC(=O)[C@H](CCCCN)NC(=O)[C@H](CO)NC(=O)[C@H](Cc1ccc(O)cc1)NC(=O)[C@H](CC(=O)O)NC(=O)[C@H](CO)NC(=O)[C@@H](NC(=O)[C@H](Cc1ccccc1)NC(=O)[C@@H](NC(=O)CNC(=O)[C@H](CCCNC(C)=O)NC(=O)[C@H](CO)NC(=O)[C@@H](N)Cc1c[nH]cn1)[C@@H](C)O)[C@@H](C)O)[C@@H](C)O)C(C)C)C(=O)N[C@@H](CC(=O)O)C(=O)N[C@@H](CCC(=O)O)C(=O)O [SEQ ID NO: 599],7
7,CSCC[C@H](NC(=O)[C@H](CC(C)C)NC(=O)[C@H](Cc1c[nH]c2ccccc12)NC(=O)[C@H](C)NC(=O)[C@@H](NC(=O)[C@H](Cc1ccccc1)NC(=O)[C@H](CC(=O)O)NC(=O)[C@H](C)NC(=O)[C@H](C)NC(=O)[C@H](CCCNC(=N)N)NC(=O)[C@H](CCCNC(=N)N)NC(=O)C(C)(C)NC(=O)[C@H](CC(=O)O)NC(=O)[C@H](CC(C)C)NC(=O)[C@H](Cc1ccc(O)cc1)NC(=O)[C@H](CCCCN)NC(=O)[C@H](CO)NC(=O)[C@H](Cc1ccc(O)cc1)NC(=O)[C@H](CC(=O)O)NC(=O)[C@H](CO)NC(=O)[C@@H](NC(=O)[C@H](Cc1ccccc1)NC(=O)[C@@H](NC(=O)CNC(=O)[C@H](CCC(N)=O)NC(=O)[C@H](CO)NC(=O)[C@@H](N)Cc1c[nH]cn1)[C@@H](C)O)[C@@H](C)O)C(C)C)C(=O)N[C@@H](CC(=O)O)C(=O)N[C@@H](CCC(=O)O)C(=O)O [SEQ ID NO: 600],15

# Same assay, conditions: Table 27, glucagon receptor
row,Structure (SMILES),% activity [%]
1,CC(=O)NCC[C@H](NC(=O)[C@H](CO)NC(=O)[C@@H](N)Cc1c[nH]cn1)C(=O)NCC(=O)N[C@H](C(=O)N[C@@H](Cc1ccccc1)C(=O)N[C@H](C(=O)N[C@@H](CO)C(=O)N[C@@H](CC(=O)O)C(=O)N[C@@H](Cc1ccc(O)cc1)C(=O)N[C@@H](CO)C(=O)N[C@@H](CCCCN)C(=O)N[C@@H](Cc1ccc(O)cc1)C(=O)N[C@@H](CC(C)C)C(=O)N[C@@H](CC(=O)O)C(=O)NC(C)(C)C(=O)N[C@@H](CCCNC(=N)N)C(=O)N[C@@H](CCCNC(=N)N)C(=O)N[C@@H](C)C(=O)N[C@@H](C)C(=O)N[C@@H](CC(=O)O)C(=O)N[C@@H](Cc1ccccc1)C(=O)N[C@H](C(=O)N[C@@H](C)C(=O)N[C@@H](Cc1c[nH]c2ccccc12)C(=O)N[C@@H](CC(C)C)C(=O)N[C@@H](CC(C)C)C(=O)N[C@@H](CC(=O)O)C(=O)N[C@H](C(=O)NCC(=O)N1CCC[C@H]1C(=O)N[C@@H](CO)C(=O)N[C@@H](CO)C(=O)NCC(=O)N[C@@H](C)C(=O)N1CCC[C@H]1C(=O)N1CCC[C@H]1C(=O)N1CCC[C@H]1C(=O)N[C@@H](CO)C(N)=O)[C@@H](C)O)C(C)C)[C@@H](C)O)[C@@H](C)O (H-HS[Dab](Ac)GTFTSDYSKYLD[Aib]RRAADFVAWLLDTGPSSGAPPPS-NH2; N-terminus assumed),113
2,CC(=O)NCC[C@H](NC(=O)[C@H](CO)NC(=O)[C@@H](N)Cc1c[nH]cn1)C(=O)NCC(=O)N[C@H](C(=O)N[C@@H](Cc1ccccc1)C(=O)N[C@H](C(=O)N[C@@H](CO)C(=O)N[C@@H](CC(=O)O)C(=O)N[C@@H](Cc1ccc(O)cc1)C(=O)N[C@@H](CO)C(=O)N[C@@H](CCCCN)C(=O)N[C@@H](Cc1ccc(O)cc1)C(=O)N[C@@H](CC(C)C)C(=O)N[C@@H](CC(=O)O)C(=O)NC(C)(C)C(=O)N[C@@H](CCCNC(=N)N)C(=O)N[C@@H](CCCNC(=N)N)C(=O)N[C@@H](C)C(=O)N[C@@H](CO)C(=O)N[C@@H](CC(=O)O)C(=O)N[C@@H](Cc1ccccc1)C(=O)N[C@H](C(=O)N[C@@H](CO)C(=O)N[C@@H](Cc1c[nH]c2ccccc12)C(=O)N[C@@H](CC(C)C)C(=O)N[C@@H](CC(C)C)C(=O)N[C@@H](CC(=O)O)C(=O)N[C@@H](CCC(=O)O)C(=O)O)C(C)C)[C@@H](C)O)[C@@H](C)O (H-HS[Dab](Ac)GTFTSDYSKYLD[Aib]RRASDFVSWLLDE-OH; N-terminus and C-terminus assumed),54
3,CC(=O)NCC[C@H](NC(=O)[C@H](CO)NC(=O)[C@@H](N)Cc1c[nH]cn1)C(=O)NCC(=O)N[C@H](C(=O)N[C@@H](Cc1ccccc1)C(=O)N[C@H](C(=O)N[C@@H](CO)C(=O)N[C@@H](CC(=O)O)C(=O)N[C@@H](Cc1ccc(O)cc1)C(=O)N[C@@H](CO)C(=O)N[C@@H](CCCCN)C(=O)N[C@@H](Cc1ccc(O)cc1)C(=O)N[C@@H](CC(C)C)C(=O)N[C@@H](CC(=O)O)C(=O)NC(C)(C)C(=O)N[C@@H](CCCNC(=N)N)C(=O)N[C@@H](CCCNC(=N)N)C(=O)N[C@@H](C)C(=O)N[C@H](C(=O)N[C@@H](CC(=O)O)C(=O)N[C@@H](Cc1ccccc1)C(=O)N[C@H](C(=O)N[C@H](C(=O)N[C@@H](Cc1c[nH]c2ccccc12)C(=O)N[C@@H](CC(C)C)C(=O)N[C@@H](CC(C)C)C(=O)N[C@@H](CC(=O)O)C(=O)N[C@@H](CCC(=O)O)C(=O)O)[C@@H](C)O)C(C)C)[C@@H](C)O)[C@@H](C)O)[C@@H](C)O (H-HS[Dab](Ac)GTFTSDYSKYLD[Aib]RRATDFVTWLLDE-OH; N-terminus and C-terminus assumed),46
